pIC50: −log10 of the molar value.
Key:
[1] = target: TarO (Staphylococcus aureus, UniProt Q2G060); assay type: cell-based; conditions: for pIC50: relative inhibition rate against the wild-type strain, OD600 at 20 h, n.a. = IC50 cannot be calculated within the test range; for TarO inhibitory activity (in words): SAR discussion
[2] = test system: USA300 LAC; experiment: Checkerboard MIC assay with oxacillin; assay type: cell-based, Staphylococcus aureus; conditions: for FICI / Sensitization fold / Minimum sensitization concentration: USA300 LAC/oxacillin; for Minimum sensitization concentration: test range 0.03–32 μg/mL
Method: (§1) In the checkerboard assay, concentrations of antibiotics, oxacillin and imipenem, and TarO inhibitors were simultaneously varied across columns and the rows, respectively. […] The range of each compound chosen for the checkerboard assay was according to their MIC value. […] For each clear well observed on the checkerboard MIC plate, the fractional inhibitory concentration index (FICI) was calculated as follows: FICI = FIC (inhibitor) + FIC (antibiotic) = MIC inhibitor in combination/ MIC inhibitor alone + MIC antibiotic in combination/MIC antibiotic alone. FIC = Fractional Inhibitory Concentration. A FICI value of < 0.5 indicates synergy, a value between 0.5 and 2 indicates additivity or indifference, and a value > 2 indicates antagonism.

[3] = test system: USA400 MW2; experiment: Checkerboard MIC assay with oxacillin; assay type: cell-based, Staphylococcus aureus
Method: as §1

[4] = Cytotoxicity assay (Sulforhodamine B); assay type: cell-based; conditions: human
Method: The cytotoxicity was detected by Sulforhodamine B method. The human pancreatic cancer cell line Capan-1, human colon cancer cell line HCT-116 and human lung adenocarcinoma cell line NCI-H1373 were purchased from American Type Culture Collection (ATCC; Manassas, VA) and inoculated into 96-well plates in triplicate. The cells were treated with different concentrations of compounds in humidified incubator containing 5% CO2 for 72 h when they reached 70%-80% confluence. Vincristine was added as a positive control. Then, SRB staining agent was added and microplate analyzer was used to read the absorbance at 450 nm wavelength. The cytotoxicity of each compound is expressed as the concentration of the compound that reduces cell viability to 50% (IC50). The optical density (OD) at a wavelength of 450 nm was measured using an SpectraMax 190 Microplate Reader (Molecular Devices; USA). The IC50 value was calculated by the Logit method using Graphpad Prism 9.1.

[5] = test system: HS663; experiment: Checkerboard MIC assay with imipenem; assay type: cell-based, Staphylococcus aureus
Method: as §1

[6] = test system: S.aureus USA300 LAC biofilm; experiment: Static biofilm inhibition assay (crystal violet); assay type: cell-based, Staphylococcus aureus
[7] = Preliminary liver microsomal stability testing; assay type: in vitro ADME, Mouse
Method: 6. Supplementary Ta b l e 3: Preliminary liver microsomal stability testing of Ta r O
Compounds Species T1/2 Clint In Vitro MF […]
a MF: metabolic bioavailability.
Microsomes in 0.1 M TRIS buffer pH 7.4 (final concentration 0.33 mg/mL), co- factor MgCl2 (final concentration 5 mM) and tested compound (final concentration 0.1 μM, co-solvent 0.01% DMSO and 0.005% Bovin serum albumin BSA) were incubated at 37°C for 10 min. The reaction was started by the addition of NADPH (final concentration 1 mM). Aliquots were sampled at 0, 5, 15, 30 and 60 min respectively and methanol (cold in wet ice) was added to terminate the reaction.
After centrifugation (4000rpm,5 min), samples were then analyzed by LC- MS/MS.

[8] = test system: USA300 LAC; experiment: MIC determination, broth microdilution; conditions: Staphylococcus aureus
[9] = test system: USA400 MW2; experiment: MIC determination, broth microdilution; conditions: Staphylococcus aureus
[10] = test system: HS663; experiment: MIC determination, broth microdilution; conditions: Staphylococcus aureus
[11] = at maximum sensitization concentration
[12] = at minimum sensitization concentration
[13] = USA400 MW2/oxacillin, at maximum sensitization concentration
[14] = USA400 MW2/oxacillin, at minimum sensitization concentration
[15] = USA400 MW2/oxacillin, test range 0.03–32 μg/mL
[16] = HS663/imipenem, at maximum sensitization concentration
[17] = HS663/imipenem, at minimum sensitization concentration
[18] = HS663/imipenem, test range 0.03–32 μg/mL

C[C@H]1[C@@H](c2cc(C(F)(F)F)cc(C(F)(F)F)c2)OC(=O)N1C(=O)OCc1cccc2ccccc12 [Compound 1]
pIC50 [1]: 6.79 | FICI [2, 11]: < 0.07 | Sensitization fold [2, 11]: 16 | Sensitization fold [2, 12]: 8 | Minimum sensitization concentration [2]: 0.06 µg/mL

C[C@H]1[C@@H](c2cc(C(F)(F)F)cc(C(F)(F)F)c2)OC(=O)N1C(=O)CCn1ccc(=O)c2ccccc21 [Compound 17a]
pIC50 [1]: 5.39 | FICI [2, 11]: < 0.13 | Sensitization fold [2, 11]: 1024 | FICI [2, 12]: < 0.15 | Sensitization fold [2, 12]: 8 | Minimum sensitization concentration [2]: 4 µg/mL

C[C@H]1[C@@H](c2cc(C(F)(F)F)cc(C(F)(F)F)c2)OC(=O)N1C(=O)CCN1CCOc2ccccc21 [Compound 11]
pIC50 [1]: 5.70 | FICI [2, 11]: < 0.07 | Sensitization fold [2, 11]: 16 | Sensitization fold [2, 12]: 4 | Minimum sensitization concentration [2]: 0.03 µg/mL

Cc1onc(-c2ccccc2)c1C(=O)N[C@@H]1C(=O)N2[C@@H]1SC(C)(C)[C@@H]2C(=O)O [oxacillin, reference compound]
MIC ([2]; Staphylococcus aureus, oxacillin used alone, USA300 LAC, read-out: MIC of β-lactam, Individual): 64 µg/mL | MIC of β-lactam, Individual ([2]; oxacillin used alone, USA300 LAC): 64 µg/mL | MIC ([3]; Staphylococcus aureus, oxacillin used alone, USA400 MW2, read-out: MIC of β-lactam, Individual): 16 µg/mL | MIC of β-lactam, Individual ([3]; oxacillin used alone, USA400 MW2): 16 µg/mL

C[C@H]1[C@@H](c2cc(C(F)(F)F)cc(C(F)(F)F)c2)OC(=O)N1C(=O)CCN1CCS(=O)(=O)c2ccccc21 [Compound 9]
TarO inhibitory activity (in words) [1]: potent inhibition activity comparable to Tarocin A | pIC50 [1]: 5.20

C[C@H]1[C@@H](c2cc(C(F)(F)F)cc(C(F)(F)F)c2)OC(=O)N1C(=O)CCN1CCCc2ccccc21 [Compound 10]
pIC50 [1]: 6.85 | IC50 at 72 h ([4]; Capan-1 cells (human pancreatic cancer cell line), Capan-1, 72 h): > 20 µM | IC50 at 72 h ([4]; HCT-116 cells (human colon cancer cell line), HCT-116, 72 h): > 20 µM | IC50 at 72 h ([4]; NCI-H1373 cells (human lung adenocarcinoma cell line), NCI-H1373, 72 h): > 20 µM | FICI [2, 11]: <0.07 | Sensitization fold [2, 11]: 16 | FICI [2, 12]: <0.13 | Sensitization fold [2, 12]: 8 | Minimum sensitization concentration [2]: 0.03 µg/mL | FICI [3, 13]: <0.07 | Sensitization fold [3, 13]: 16 | FICI [3, 14]: <0.13 | Sensitization fold [3, 14]: 8 | Maximum sensitization concentration [3, 15]: 0.12 µg/mL | Minimum sensitization concentration [3, 15]: 0.03 µg/mL | MIC of β-lactam, combined ([3]; oxacillin with TarO inhibitor at maximum sensitization concentration, USA400 MW2): 1 µg/mL | MIC of β-lactam, combined ([3]; oxacillin with TarO inhibitor at minimum sensitization concentration, USA400 MW2): 2 µg/mL | FICI [5, 16]: <0.02 | Sensitization fold [5, 16]: 64 | FICI [5, 17]: <0.13 | Sensitization fold [5, 17]: 8 | Maximum sensitization concentration [5, 18]: 0.25 µg/mL | Minimum sensitization concentration [5, 18]: 0.03 µg/mL | MIC of β-lactam, combined ([5]; imipenem with TarO inhibitor at maximum sensitization concentration, HS663): 1 µg/mL | MIC of β-lactam, combined ([5]; imipenem with TarO inhibitor at minimum sensitization concentration, HS663): 8 µg/mL | inhibition of biofilm formation ([6]; 0.125 μg/mL): near a half | inhibition at 0.5 µg/mL ([6]; Staphylococcus aureus, USA300, read-out: inhibition of biofilm formation): > 90% | Clint In Vitro ([7]; Mouse liver microsomes): 1779 mL/min/gprot | Comments (metabolic stability) ([7]; Mouse liver microsomes): poor | half-life at 0.1 μM ([7]; pH 7.4, Mouse liver microsomes 0.33 mg/mL, 0.1 μM compound): 1.18 min | MIC [8]: > 256 µg/mL | MIC [9]: > 256 µg/mL | MIC [10]: > 256 µg/mL

C[C@H]1[C@@H](c2cc(F)cc(C(F)(F)F)c2)OC(=O)N1C(=O)CCn1ccc(=O)c2ccccc21 [Compound 17c]
pIC50 [1]: 4.56

C[C@H]1[C@@H](c2cccc(C(F)(F)F)c2)OC(=O)N1C(=O)NCc1cncc2ccccc12 [Tarocin A2, reference compound]
pIC50 [1]: 4.62

C[C@H]1[C@@H](c2cc(C(F)(F)F)cc(C(F)(F)F)c2)OC(=O)N1C(=O)CCC1CCCCC1 [Compound 8]
TarO inhibitory activity (in words) [1]: inactive

tunicamycin [reference compound]
induction of vraXpro-lux expression ([1]; MRSA USA300 LAC strain, exponential growth phase): concentration-dependent manner | bacterial growth density (OD600) ([1]; post-exponential growth phase): effectively reduced the bacterial growth density

C[C@H]1[C@@H](c2cc(C(F)(F)F)cc(C(F)(F)F)c2)OC(=O)N1C(=O)CCc1cccc2c1OCC/C2=N\O [Compound 23]
pIC50 [1]: 5.12

C[C@H]1[C@@H](c2cc(C(F)(F)F)cc(C(F)(F)F)c2)OC(=O)N1C(=O)CCN1CCS(=O)(=O)CC1 [Compound 19]
TarO inhibitory activity (in words) [1]: lost its activity

C[C@H]1[C@@H](c2cc(C(F)(F)F)cc(C(F)(F)F)c2)OC(=O)N1C(=S)NCc1cccc2ccccc12 [Compound 5]
pIC50 [1]: 5.05 | FICI [2, 11]: < 0.13 | Sensitization fold [2, 11]: 8 | Sensitization fold [2, 12]: 8 | Minimum sensitization concentration [2]: 0.25 µg/mL

COc1cc(C(F)(F)F)cc([C@H]2OC(=O)N(C(=O)CCn3ccc(=O)c4ccccc43)[C@H]2C)n1 [Compound 17b]
pIC50 [1]: 4.65

C[C@H]1[C@@H](c2cc(C(F)(F)F)cc(C(F)(F)F)c2)OC(=O)N1C(=O)CCc1cccc2c1OCCC2=O [Compound 14]
pIC50 [1]: 5.39 | FICI [2, 11]: < 0.08 | Sensitization fold [2, 11]: 16 | Sensitization fold [2, 12]: 8 | Minimum sensitization concentration [2]: 0.25 µg/mL

C[C@H]1[C@@H](c2cccc(C(F)(F)F)c2)OC(=O)N1C(=O)CCn1ccc(=O)c2ccccc21 [Compound 17d]
pIC50 [1]: 4.52

C[C@H]1[C@@H](c2cc(C(F)(F)F)cc(C(F)(F)F)c2)OC(=O)N1C(=O)N1CC(c2cccc3ccccc23)C1 [Compound 6]
TarO inhibitory activity (in words) [1]: loss of activity

C[C@@H](O)[C@H]1C(=O)N2C(C(=O)O)=C(SCCN=CN)C[C@H]12 [imipenem, reference compound]
MIC ([5]; Staphylococcus aureus, imipenem used alone, HS663, read-out: MIC of β-lactam, Individual): 64 µg/mL | MIC of β-lactam, Individual ([5]; imipenem used alone, HS663): 64 µg/mL

C[C@H]1[C@@H](c2cc(C(F)(F)F)cc(C(F)(F)F)c2)OC(=O)N1C(=O)CNc1cccc2ccccc12 [Compound 7]
pIC50 [1]: 5.14

C[C@H]1[C@@H](c2cc(C(F)(F)F)cc(C(F)(F)F)c2)OC(=O)N1C(=O)SCc1cccc2ccccc12 [Compound 2]
TarO inhibitory activity (in words) [1]: potent TarO inhibitory activity | pIC50 [1]: 7.01 | FICI [2, 11]: < 0.04 | Sensitization fold [2, 11]: 32 | Sensitization fold [2, 12]: 8 | Minimum sensitization concentration [2]: 0.06 µg/mL

C[C@H]1[C@@H](c2cc(C(F)(F)F)cc(C(F)(F)F)c2)OC(=O)N1C(=O)CCN1CCC(=O)c2ccccc21 [Compound 12]
pIC50 [1]: 5.30

Reference: paper PMC11993615, “Design, synthesis and optimization of TarO inhibitors as multifunctional antibiotics against Methicillin-resistant Staphylococcus aureus” (npj Antimicrobials and Resistance, 2025)
